Reference: BindingDB's records for PubMed 10688601 (Virginia Commonwealth University, 2000)

Key:
Cannabinoid receptor 2 [1] = target: T1, Cannabinoid receptor 2 (Rattus norvegicus, UniProt Q9QZN9)
T1 sequence (Q9QZN9 whole entry): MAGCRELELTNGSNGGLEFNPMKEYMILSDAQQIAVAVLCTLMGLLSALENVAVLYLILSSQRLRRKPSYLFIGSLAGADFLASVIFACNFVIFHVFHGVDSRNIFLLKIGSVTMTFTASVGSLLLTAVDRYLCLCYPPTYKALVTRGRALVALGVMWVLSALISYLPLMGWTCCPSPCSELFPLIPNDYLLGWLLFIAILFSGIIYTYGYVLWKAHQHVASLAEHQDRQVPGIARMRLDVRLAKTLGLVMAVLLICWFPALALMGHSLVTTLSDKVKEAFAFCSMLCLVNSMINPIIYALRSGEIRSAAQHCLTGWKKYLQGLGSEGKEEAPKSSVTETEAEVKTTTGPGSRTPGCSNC

Cannabinoid receptor 2 [2] = target: Cannabinoid receptor 2 (Mus musculus, UniProt P47936)
Cannabinoid receptor 2 [3] = target: Cannabinoid receptor 2 (Homo sapiens, UniProt P34972)
Chain of Cannabinoid receptor 2 (Homo sapiens, UniProt P34972) (P34972 whole entry): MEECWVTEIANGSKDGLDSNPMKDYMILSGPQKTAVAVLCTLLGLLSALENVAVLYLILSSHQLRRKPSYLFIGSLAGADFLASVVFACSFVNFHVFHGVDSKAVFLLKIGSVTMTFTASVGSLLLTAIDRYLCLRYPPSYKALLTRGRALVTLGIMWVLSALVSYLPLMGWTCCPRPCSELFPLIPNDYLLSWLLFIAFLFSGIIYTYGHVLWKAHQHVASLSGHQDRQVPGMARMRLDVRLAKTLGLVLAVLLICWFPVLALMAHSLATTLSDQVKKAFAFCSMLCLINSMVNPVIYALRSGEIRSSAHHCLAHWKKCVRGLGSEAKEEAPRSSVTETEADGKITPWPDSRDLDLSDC

Chain of Cannabinoid receptor 2 (Mus musculus, UniProt P47936) (P47936 whole entry): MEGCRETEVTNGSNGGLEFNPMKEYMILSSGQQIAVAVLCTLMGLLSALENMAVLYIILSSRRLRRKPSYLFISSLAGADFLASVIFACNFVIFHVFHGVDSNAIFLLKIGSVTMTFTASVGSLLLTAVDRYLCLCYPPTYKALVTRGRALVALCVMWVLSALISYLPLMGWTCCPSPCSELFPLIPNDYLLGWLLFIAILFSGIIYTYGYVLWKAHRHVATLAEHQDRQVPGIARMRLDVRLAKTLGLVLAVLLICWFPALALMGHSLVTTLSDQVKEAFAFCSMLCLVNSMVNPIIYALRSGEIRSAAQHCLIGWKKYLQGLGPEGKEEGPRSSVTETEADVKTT

SMILES: CCCCCCC(C)(C)c1ccc([C@H]2C[C@@H](O)CC[C@@H]2CCCO)c(O)c1 [CP-56667 [(+)-AC],XV]
- Ki (Cannabinoid receptor 2 [1]): 0.64 nM
- Ki (Cannabinoid receptor 2 [2]): 0.73 nM

SMILES: CCCCCc1cc(O)c2c(c1)OC(C)(C)[C@@H]1CCC(C)=CC21 (stereo not given in full) [Tetrahydrocannabinol]
- Ki (Cannabinoid receptor 2 [2]): 27.3 nM

SMILES: CCCn1c(C)c(C(=O)c2cccc3ccccc23)c2ccccc21
- Ki (Cannabinoid receptor 2 [1]): 269 nM
- Ki (Cannabinoid receptor 2 [2]): 431 nM

SMILES: CCCCC/C=C\C/C=C\C/C=C\C/C=C\CCCC(=O)NCCO [Arachidonoyl ethanolamide]
- Ki (Cannabinoid receptor 2 [2]): 1480 nM

SMILES: CCCCCCC(C)(C)c1ccc2c(c1)OC(C)(C)[C@@H]1CC=C(CO)C[C@@H]21 [JWH-051]
- Ki (Cannabinoid receptor 2 [3]): 0.33 nM
- Ki (Cannabinoid receptor 2 [1]): 3.16 nM
- Ki (Cannabinoid receptor 2 [2]): 0.72 nM

SMILES: Cc1c(C(=O)c2cccc3ccccc23)c2cccc3c2n1[C@H](CN1CCOCC1)CO3 [WIN55212-2]
- Ki (Cannabinoid receptor 2 [2]): 9.46 nM
